In ChEMBL document CHEMBL4507311, “Data for DCP probe A-1155463” (2021):

Legend:
[1] = system: Phosphatidylinositol 4,5-bisphosphate 3-kinase catalytic subunit alpha isoform (Homo sapiens), P42336 [H1047L]; settings: Compound concentration 1000.0 nM
[2] = molecular target: TGF-beta receptor type-2 (Homo sapiens) (UniProt P37173); settings: Compound concentration 1000.0 nM
[3] = system: Epidermal growth factor receptor (Homo sapiens), P00533 [UNDEFINED MUTATION]; settings: Compound concentration 1000.0 nM
[4] = molecular target: Serine/threonine-protein kinase 10 (Homo sapiens) (UniProt O94804); settings: Compound concentration 1000.0 nM
Serine/threonine-protein kinase 10 (Homo sapiens), sequence (O94804 whole entry, looked up): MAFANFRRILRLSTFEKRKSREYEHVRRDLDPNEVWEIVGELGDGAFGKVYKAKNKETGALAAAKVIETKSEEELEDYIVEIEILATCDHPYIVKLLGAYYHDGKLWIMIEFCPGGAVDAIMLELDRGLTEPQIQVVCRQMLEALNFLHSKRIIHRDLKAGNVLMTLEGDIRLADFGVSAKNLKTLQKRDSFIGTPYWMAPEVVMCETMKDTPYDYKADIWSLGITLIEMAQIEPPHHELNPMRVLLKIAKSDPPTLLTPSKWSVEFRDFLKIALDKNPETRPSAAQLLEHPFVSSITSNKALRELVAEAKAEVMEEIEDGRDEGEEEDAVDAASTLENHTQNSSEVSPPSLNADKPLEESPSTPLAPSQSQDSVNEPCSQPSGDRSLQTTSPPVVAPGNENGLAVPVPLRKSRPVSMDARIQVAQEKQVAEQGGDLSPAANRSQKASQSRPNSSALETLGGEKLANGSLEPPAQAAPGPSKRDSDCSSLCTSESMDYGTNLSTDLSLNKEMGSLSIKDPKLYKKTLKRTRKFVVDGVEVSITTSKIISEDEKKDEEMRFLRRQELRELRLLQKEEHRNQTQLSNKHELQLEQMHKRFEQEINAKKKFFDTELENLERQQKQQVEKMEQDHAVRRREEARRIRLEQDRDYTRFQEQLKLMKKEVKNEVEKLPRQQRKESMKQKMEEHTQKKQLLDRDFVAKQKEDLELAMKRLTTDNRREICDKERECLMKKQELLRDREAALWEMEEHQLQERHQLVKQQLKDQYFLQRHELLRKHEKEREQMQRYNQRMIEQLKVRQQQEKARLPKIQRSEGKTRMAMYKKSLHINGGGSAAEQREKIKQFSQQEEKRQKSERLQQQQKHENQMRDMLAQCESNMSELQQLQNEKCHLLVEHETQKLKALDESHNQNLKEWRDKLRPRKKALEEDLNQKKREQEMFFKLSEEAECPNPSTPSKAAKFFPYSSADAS

[5] = system: eIF-2-alpha kinase GCN2 (Homo sapiens), Q9P2K8 [S808G]; settings: Compound concentration 1000.0 nM
[6] = molecular target: Bone morphogenetic protein receptor type-1A (Homo sapiens) (UniProt P36894); settings: Compound concentration 1000.0 nM
[7] = molecular target: Uncharacterized serine/threonine-protein kinase SBK3 (Homo sapiens) (UniProt P0C264); settings: Compound concentration 1000.0 nM
[8] = molecular target: Casein kinase I isoform epsilon (Homo sapiens) (UniProt P49674); settings: Compound concentration 1000.0 nM
[9] = molecular target: Casein kinase II subunit alpha (Homo sapiens) (UniProt P68400); settings: Compound concentration 1000.0 nM
Casein kinase II subunit alpha (Homo sapiens), sequence (P68400 whole entry, looked up): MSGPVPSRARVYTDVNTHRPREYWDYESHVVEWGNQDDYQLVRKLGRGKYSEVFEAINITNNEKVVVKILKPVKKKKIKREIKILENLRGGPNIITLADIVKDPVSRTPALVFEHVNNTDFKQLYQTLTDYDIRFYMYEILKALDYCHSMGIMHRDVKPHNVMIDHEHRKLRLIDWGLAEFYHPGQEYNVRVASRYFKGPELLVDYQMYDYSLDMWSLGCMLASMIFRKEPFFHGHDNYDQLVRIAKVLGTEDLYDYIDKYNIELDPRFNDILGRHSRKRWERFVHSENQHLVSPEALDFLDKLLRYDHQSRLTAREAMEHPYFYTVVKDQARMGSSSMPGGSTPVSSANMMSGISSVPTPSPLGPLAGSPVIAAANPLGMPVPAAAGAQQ

[10] = molecular target: 5-hydroxytryptamine receptor 2B (Homo sapiens) (UniProt P41595); settings: Compound concentration 10.0 uM
RS4-11 = assay: CellTiter-Glo Luminescent Cell Viability Assay (BCL-2 dependent cell line RS4-11); format: functional, cell-based; settings: Homo sapiens
[11] = molecular target: Cyclin-G-associated kinase (Homo sapiens) (UniProt O14976); settings: Compound concentration 1000.0 nM
[12] = molecular target: Wee1-like protein kinase (Homo sapiens) (UniProt P30291); settings: Compound concentration 1000.0 nM
[13] = molecular target: Serine/threonine-protein kinase Nek3 (Homo sapiens) (UniProt P51956); settings: Compound concentration 1000.0 nM
[14] = molecular target: Serine/threonine-protein kinase PAK 5 (Homo sapiens) (UniProt Q9P286); settings: Compound concentration 1000.0 nM
[15] = molecular target: MAP/microtubule affinity-regulating kinase 3 (Homo sapiens) (UniProt P27448); settings: Compound concentration 1000.0 nM
MAP/microtubule affinity-regulating kinase 3 (Homo sapiens), sequence (P27448 whole entry, looked up): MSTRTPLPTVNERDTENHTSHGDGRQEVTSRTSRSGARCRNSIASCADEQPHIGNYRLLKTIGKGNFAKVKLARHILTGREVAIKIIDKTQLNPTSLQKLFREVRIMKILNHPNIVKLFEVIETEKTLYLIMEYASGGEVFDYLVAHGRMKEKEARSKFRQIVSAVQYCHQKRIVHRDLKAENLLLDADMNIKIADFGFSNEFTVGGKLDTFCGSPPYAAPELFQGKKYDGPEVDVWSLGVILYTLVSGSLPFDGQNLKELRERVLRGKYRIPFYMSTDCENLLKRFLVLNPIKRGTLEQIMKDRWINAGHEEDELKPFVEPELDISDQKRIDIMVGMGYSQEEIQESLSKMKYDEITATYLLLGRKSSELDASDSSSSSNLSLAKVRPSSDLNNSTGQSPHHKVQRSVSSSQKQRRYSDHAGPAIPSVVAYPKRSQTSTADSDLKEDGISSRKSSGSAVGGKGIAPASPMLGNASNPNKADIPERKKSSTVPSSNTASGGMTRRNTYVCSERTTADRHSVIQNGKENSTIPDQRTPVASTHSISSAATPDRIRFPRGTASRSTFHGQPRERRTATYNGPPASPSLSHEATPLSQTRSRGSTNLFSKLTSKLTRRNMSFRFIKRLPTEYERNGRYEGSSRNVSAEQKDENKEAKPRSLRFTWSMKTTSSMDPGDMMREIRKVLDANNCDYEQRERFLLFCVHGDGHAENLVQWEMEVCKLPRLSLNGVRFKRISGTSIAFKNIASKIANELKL

[16] = molecular target: Ephrin type-A receptor 5 (Homo sapiens) (UniProt P54756); settings: Compound concentration 1000.0 nM
[17] = molecular target: RAC-alpha serine/threonine-protein kinase (Homo sapiens) (UniProt P31749); settings: Compound concentration 1000.0 nM
RAC-alpha serine/threonine-protein kinase (Homo sapiens), sequence (P31749 whole entry): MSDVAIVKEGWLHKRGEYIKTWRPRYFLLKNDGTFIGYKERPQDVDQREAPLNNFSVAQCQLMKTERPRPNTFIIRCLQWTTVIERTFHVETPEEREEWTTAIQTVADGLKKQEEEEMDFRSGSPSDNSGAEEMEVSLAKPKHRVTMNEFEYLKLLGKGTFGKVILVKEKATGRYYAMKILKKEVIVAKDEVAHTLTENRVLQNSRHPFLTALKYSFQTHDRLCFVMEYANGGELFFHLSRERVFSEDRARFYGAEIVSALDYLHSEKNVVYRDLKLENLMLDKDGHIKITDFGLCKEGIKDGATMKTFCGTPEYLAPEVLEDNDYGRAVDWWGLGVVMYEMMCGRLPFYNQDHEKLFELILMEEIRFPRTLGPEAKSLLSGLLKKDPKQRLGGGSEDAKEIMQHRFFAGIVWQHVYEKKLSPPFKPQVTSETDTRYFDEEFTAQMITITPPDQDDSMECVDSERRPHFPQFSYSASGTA

[18] = molecular target: Serine/threonine-protein kinase pim-1 (Homo sapiens) (UniProt P11309); settings: Compound concentration 1000.0 nM
[19] = molecular target: D(1B) dopamine receptor (Homo sapiens) (UniProt P21918); settings: Compound concentration 10.0 uM
[20] = molecular target: Serine/threonine-protein kinase ICK (Homo sapiens) (UniProt Q9UPZ9); settings: Compound concentration 1000.0 nM
[21] = molecular target: Mitogen-activated protein kinase 3 (Homo sapiens) (UniProt P27361); settings: Compound concentration 1000.0 nM
[22] = system: Tyrosine-protein kinase ABL1 (Homo sapiens), P00519 [Q252H]; settings: Compound concentration 1000.0 nM
[23] = molecular target: Serine/threonine-protein kinase SIK3 (Homo sapiens) (UniProt Q9Y2K2); settings: Compound concentration 1000.0 nM
[24] = molecular target: Phosphatidylinositol 5-phosphate 4-kinase type-2 beta (Homo sapiens) (UniProt P78356); settings: Compound concentration 1000.0 nM
[25] = molecular target: Serine/threonine-protein kinase tousled-like 1 (Homo sapiens) (UniProt Q9UKI8); settings: Compound concentration 1000.0 nM
[26] = molecular target: Rho-associated protein kinase 1 (Homo sapiens) (UniProt Q13464); settings: Compound concentration 1000.0 nM
[27] = molecular target: Mitogen-activated protein kinase 12 (Homo sapiens) (UniProt P53778); settings: Compound concentration 1000.0 nM
[28] = molecular target: Sodium-dependent serotonin transporter (Homo sapiens) (UniProt P31645); settings: Compound concentration 10.0 uM
[29] = molecular target: Interleukin-1 receptor-associated kinase 4 (Homo sapiens) (UniProt Q9NWZ3); settings: Compound concentration 1000.0 nM
Interleukin-1 receptor-associated kinase 4 (Homo sapiens), sequence (Q9NWZ3 whole entry): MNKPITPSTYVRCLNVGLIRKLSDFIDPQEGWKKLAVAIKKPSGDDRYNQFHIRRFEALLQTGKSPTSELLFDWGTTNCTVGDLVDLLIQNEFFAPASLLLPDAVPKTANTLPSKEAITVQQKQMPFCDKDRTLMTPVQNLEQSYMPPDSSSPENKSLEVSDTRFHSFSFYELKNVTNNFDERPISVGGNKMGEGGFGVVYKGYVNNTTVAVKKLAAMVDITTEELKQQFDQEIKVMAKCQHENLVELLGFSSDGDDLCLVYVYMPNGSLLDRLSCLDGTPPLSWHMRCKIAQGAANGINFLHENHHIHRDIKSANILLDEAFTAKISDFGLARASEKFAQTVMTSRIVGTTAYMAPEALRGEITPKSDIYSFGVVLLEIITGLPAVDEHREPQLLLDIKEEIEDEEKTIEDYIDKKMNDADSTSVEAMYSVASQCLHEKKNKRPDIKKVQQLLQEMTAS

[30] = molecular target: Serine/threonine-protein kinase STK11 (Homo sapiens) (UniProt Q15831); settings: Compound concentration 1000.0 nM
[31] = molecular target: Dual specificity protein kinase CLK3 (Homo sapiens) (UniProt P49761); settings: Compound concentration 1000.0 nM
[32] = system: Phosphatidylinositol 4,5-bisphosphate 3-kinase catalytic subunit alpha isoform (Homo sapiens), P42336 [C420R]; settings: Compound concentration 1000.0 nM
[33] = molecular target: Cyclin-dependent kinase 4 (Homo sapiens) (UniProt P11802); settings: Compound concentration 1000.0 nM
[34] = molecular target: Dual specificity mitogen-activated protein kinase kinase 6 (Homo sapiens) (UniProt P52564); settings: Compound concentration 1000.0 nM
[35] = molecular target: Ribosomal protein S6 kinase beta-1 (Homo sapiens) (UniProt P23443); settings: Compound concentration 1000.0 nM
Ribosomal protein S6 kinase beta-1 (Homo sapiens), sequence (P23443 whole entry, looked up): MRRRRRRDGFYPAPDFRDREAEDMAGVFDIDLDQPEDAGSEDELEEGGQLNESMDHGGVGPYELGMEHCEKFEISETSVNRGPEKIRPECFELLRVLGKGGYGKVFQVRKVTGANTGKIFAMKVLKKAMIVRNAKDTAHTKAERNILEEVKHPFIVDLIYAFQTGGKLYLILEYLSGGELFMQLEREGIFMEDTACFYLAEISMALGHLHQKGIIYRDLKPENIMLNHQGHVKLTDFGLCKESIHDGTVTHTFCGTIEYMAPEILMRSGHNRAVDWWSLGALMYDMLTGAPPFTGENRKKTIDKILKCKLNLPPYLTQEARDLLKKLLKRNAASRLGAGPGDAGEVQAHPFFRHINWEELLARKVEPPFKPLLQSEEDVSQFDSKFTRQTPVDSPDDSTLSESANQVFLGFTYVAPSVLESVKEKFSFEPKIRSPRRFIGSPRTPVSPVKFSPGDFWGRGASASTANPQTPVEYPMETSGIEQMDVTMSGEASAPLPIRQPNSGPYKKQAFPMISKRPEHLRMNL

[36] = molecular target: Mitogen-activated protein kinase kinase kinase kinase 3 (Homo sapiens) (UniProt Q8IVH8); settings: Compound concentration 1000.0 nM
Mitogen-activated protein kinase kinase kinase kinase 3 (Homo sapiens), sequence (Q8IVH8 whole entry): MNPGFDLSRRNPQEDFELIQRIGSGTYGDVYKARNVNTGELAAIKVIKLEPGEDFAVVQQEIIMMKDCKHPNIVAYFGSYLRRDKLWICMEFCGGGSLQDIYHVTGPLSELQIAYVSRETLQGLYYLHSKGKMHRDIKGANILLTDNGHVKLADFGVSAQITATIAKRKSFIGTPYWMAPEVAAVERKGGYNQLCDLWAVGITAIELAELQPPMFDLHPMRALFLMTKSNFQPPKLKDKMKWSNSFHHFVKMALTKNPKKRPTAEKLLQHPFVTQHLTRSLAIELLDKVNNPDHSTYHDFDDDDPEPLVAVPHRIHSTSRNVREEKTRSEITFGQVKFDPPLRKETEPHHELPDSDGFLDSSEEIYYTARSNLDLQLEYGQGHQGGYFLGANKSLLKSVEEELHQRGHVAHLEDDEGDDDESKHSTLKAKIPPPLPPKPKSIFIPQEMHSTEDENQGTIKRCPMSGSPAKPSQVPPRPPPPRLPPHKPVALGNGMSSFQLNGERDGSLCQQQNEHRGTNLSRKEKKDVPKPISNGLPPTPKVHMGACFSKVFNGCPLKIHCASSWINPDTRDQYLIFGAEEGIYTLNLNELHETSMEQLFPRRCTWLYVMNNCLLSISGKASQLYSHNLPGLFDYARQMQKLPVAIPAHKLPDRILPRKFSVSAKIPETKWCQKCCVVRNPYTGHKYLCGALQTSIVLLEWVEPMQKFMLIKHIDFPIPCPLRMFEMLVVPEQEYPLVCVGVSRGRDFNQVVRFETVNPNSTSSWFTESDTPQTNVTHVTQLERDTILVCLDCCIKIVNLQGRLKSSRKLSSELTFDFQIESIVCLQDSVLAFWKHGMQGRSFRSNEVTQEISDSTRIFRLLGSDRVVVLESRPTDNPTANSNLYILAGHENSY

[37] = system: Epidermal growth factor receptor (Homo sapiens), P00533 [L858R]; settings: Compound concentration 1000.0 nM
[38] = system: Leucine-rich repeat serine/threonine-protein kinase 2 (Homo sapiens), Q5S007 [G2019S]; settings: Compound concentration 1000.0 nM
[39] = molecular target: Serine/threonine-protein kinase PAK 3 (Homo sapiens) (UniProt O75914); settings: Compound concentration 1000.0 nM
[40] = molecular target: Serine/threonine-protein kinase TAO1 (Homo sapiens) (UniProt Q7L7X3); settings: Compound concentration 1000.0 nM
[41] = molecular target: Serine/threonine-protein kinase DCLK1 (Homo sapiens) (UniProt O15075); settings: Compound concentration 1000.0 nM
[42] = molecular target: Serine/threonine-protein kinase Nek10 (Homo sapiens) (UniProt Q6ZWH5); settings: Compound concentration 1000.0 nM
[43] = molecular target: Serine/threonine-protein kinase Nek1 (Homo sapiens) (UniProt Q96PY6); settings: Compound concentration 1000.0 nM

TGF-beta receptor type-2 (Homo sapiens), sequence (P37173 whole entry): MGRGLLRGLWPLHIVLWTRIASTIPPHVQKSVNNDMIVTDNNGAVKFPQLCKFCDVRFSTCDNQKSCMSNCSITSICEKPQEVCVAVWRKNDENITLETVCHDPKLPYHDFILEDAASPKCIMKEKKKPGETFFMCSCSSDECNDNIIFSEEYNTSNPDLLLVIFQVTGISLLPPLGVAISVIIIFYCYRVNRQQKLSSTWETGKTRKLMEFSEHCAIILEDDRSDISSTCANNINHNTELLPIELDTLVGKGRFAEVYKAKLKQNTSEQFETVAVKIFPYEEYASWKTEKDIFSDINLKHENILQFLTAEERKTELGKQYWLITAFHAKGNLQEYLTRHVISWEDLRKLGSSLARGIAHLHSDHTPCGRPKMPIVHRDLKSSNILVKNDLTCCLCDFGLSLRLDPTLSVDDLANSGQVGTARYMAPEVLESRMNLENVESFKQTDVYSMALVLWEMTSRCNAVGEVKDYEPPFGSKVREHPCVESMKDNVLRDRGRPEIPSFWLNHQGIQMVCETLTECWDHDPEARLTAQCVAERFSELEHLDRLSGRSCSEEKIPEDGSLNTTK

CN(C)CC#Cc1ccc(OCCCc2sc(N3CCc4cccc(C(=O)Nc5nc6ccccc6s5)c4C3)nc2C(=O)O)c(F)c1 [A-1155463]
active: residual activity [15] 38%
inactive: residual activity [1] 68% | residual activity [2] 83% | residual activity [3] 94% | residual activity [4] 100% | residual activity [5] 83% | residual activity [6] 99% | residual activity [7] 100% | residual activity [8] 86% | residual activity [9] 100% | inhibition [10] 5.67% | residual activity [11] 100% | residual activity [12] 100% | residual activity [13] 100% | residual activity [14] 91% | residual activity [16] 98% | residual activity [17] 100% | residual activity [18] 100% | inhibition [19] 40.8% | residual activity [20] 100% | residual activity [21] 96% | residual activity [22] 88% | residual activity [23] 77% | residual activity [24] 80% | residual activity [25] 86% | residual activity [26] 100% | residual activity [27] 89% | inhibition [28] 16.4% | residual activity [29] 100% | residual activity [30] 100% | residual activity [31] 86% | residual activity [32] 100% | residual activity [33] 100% | residual activity [34] 100% | residual activity [35] 100% | residual activity [36] 92% | residual activity [37] 89% | residual activity [38] 100% | residual activity [39] 97% | residual activity [40] 100% | residual activity [41] 72% | residual activity [42] 87% | residual activity [43] 100%
> 10 µM (not active): EC50 (RS4-11)
